Results as given in patent publication US6872712B1, “Cyclic glycerophosphates and analogs thereof” (Yeda Research and Development Co. Ltd., priority 1999, dated 2005).

Key:
[1] = system: CHO cells; experiment: Uptake of 32P labeled 1,3-cPP by CHO cells; assay type: cell-based, Chinese hamster; details: intact CHO cells, increasing amounts of unlabeled compound
Procedure: After 2 washings with PBS the cells were disintegrated in 1 M NaOH and radioactivity was scored with a β counter. The insert presents the magnified uptake profile for short incubations (up to 2 minutes) where the intercept (0 time incubation) corresponded to approximately 3×10^6 molecules per cell, while at equilibrium (above 2 hours incubation) incorporation corresponded to approximately 2×10^8 molecules per cell.

[2] = system: tyrosine phosphorylated proteins in CHO cells; experiment: Tyrosine phosphorylation in CHO cells (Western blot with anti-phosphotyrosine antibodies); assay type: cell-based, Chinese hamster; details: CHO cells, 1, 3, 5 or 10 mins at 37° C., 1 μM or 2 μM, monoclonal antibodies (FIG. 2)
Procedure: Chinese hamster ovary (CHO) cells (Puck, 1985; Gottesman, 1987) and NIH-3T3 cells (NIH), were used in the following experiments. CHO cells were grown at 37° C. in a humidified 5% CO2 atmosphere in 60×15 mm Petri dishes (Falcon) containing F12 medium supplemented with 10% fetal calf serum (FCS) and 2 mM glutamine. When reaching near confluence, the cells were placed under overnight starvation by replacing the medium to F12+2 mM glutamine with 0.1% FCS. The stimulation experiments were performed with cells which were under starvation for 12-18 hours.
(§1) The cyclic phosphates 1,3 cGP, 1,3 cPP, 1,2 cGP, 1,2 cPP, P-1,3 cGP and P-1,3 cPP and the controls αGP and βGP were dissolved in HBSS, or methanol to form stocks of 1 mM or 10 mM. They were diluted into the cell culture medium to a final concentration of up to 20 μM. At the assigned stimulation time (0.5-20 min.) the medium was aspirated under vacuum and the cells were washed 3 times with cold (4° C.) phosphate buffered saline (PBS). […] The protein concentration in each sample, as evaluated by the Bradford assay, was in the range of 1-1.5 mg/ml. […] Bound antibodies were detected by horseradish peroxidase-conjugated anti-rabbit antibodies (Transduction Laboratories, Lexington Ky.) after 2 hours incubation at room temperature, using the conventional ECL detection method. […]

[3] = system: perforated CHO cells; experiment: Intracellular binding in perforated CHO cells (displacement of 1,3-cP32P); set-up: species or system Chinese hamster; details: 20 μM 1,3-cP32P, 5 minutes at 4° C., increasing amounts of competitor (FIG. 9)
Procedure: Radioactivity was scored after 2 washings with PBS at 4° C. as above. […] In this set of experiments the number of displaceable (i.e. specifically bound) ligands was estimated to be in the range of 10^7-10^8 per cell.

[4] = system: tyrosine phosphorylated proteins in NIH 3T3 cells; experiment: Tyrosine phosphorylation in NIH 3T3 cells (Western blot with anti-phosphotyrosine antibodies); assay type: cell-based; details: 1 min or 5 mins at 37° C., 0.5, 1, 2 or 4 μM, monoclonal antibodies (FIG. 3)
Procedure: NIH-3T3 cells were grown under similar conditions in 1640 Eagle medium at 10% bovine calf serum plus 2 mM glutamine.
as §1, with “(PBS). The cells were then freeze-thawed 3 times with liquid nitrogen in 0.5 ml of a lysis buffer of PBS containing 1 mM phenylmethylsulfonyl fluoride, a cocktail of protease inhibitors (aprotinin, leuproptin, pepstatin A, phenanthroline, benzamidine HCl each at a concentration of 10 μg/ml) and a cocktail of phosphatase inhibitors (80 mM β-glycerophosphate, 2 mM EGTA and 50 μM Na3VO4), and then scraped off. The lysate was then vortexed and centrifuged for 2 minutes at 12.000 g.” for “(PBS).”

[5] = system: K562 leukemia cells; experiment: Differentiation of K562 leukemia cells (hemoglobin, benzidine assay); assay type: cell-based; details: 4 days, 10 μM 1,3 cPP in combination with 1.5 mM sodium butyrate (FIG. 13)
Procedure: K562 leukemia cells are able to differentiate to the erythroid lineage. Such differentiation is characterized by the cells' ability to synthesize hemoglobin. Sodium butyrate is a known differentiation agent of such leukemia cells.
In this example, the ability of 1,3 cPP, α-GP and sodium butyrate alone and n combination to cause differentiation of K562 cells was evaluated using the known benzidine assay.
K562 cells were incubated for a period of 4 days with the following: • (a) growth medium (control); • (b) 10 μM of 1,3 cPP; • (c) […] of α-GP; • (d) 1.5 mM of sodium butyrate; • (e) a combination of sodium butyrate and 1,3 cPP; and • (f) sodium butyrate and α-GP.

[6] = system: insulin receptor; experiment: Tyrosine phosphorylation of the insulin receptor in CHO-T cells; assay type: cell-based; details: 20 mins, 0.1 μM 1,3 cPP in combination with 0.1 nM insulin (FIG. 10)
Procedure: Group 4: 0.1 μM 1,3, cPP only.
Tyrosine phosphorylation was determined using anti-phosphotyrosine antibody (as described above).

[7] = Stability of cyclic phosphates in PBS / aqueous solution (TLC); assay type: physicochemical; details: 10 mg/ml in PBS, 37°, up to 24 hours
Procedure: These possibilities were tested with the 4 cyclic phosphates (1,2 cGP, 1,3 cGP, 1,2 cPP and 1,3 cPPP (see Appendix A) in either aqueous solution or in cell lysates of CHO or NIH-3T3 cells (see Materials and Methods). 10 mg/ml cyclic phosphate in 1 ml of either PBS or PBS mixed with cell lysate (0.1 mg/ml protein) and incubated at 37° for up to 24 hours. Samples were tested at different times by thin layer chromatography on Silica gel 60 with n-propanol, concentrated ammonia, H2O (6:3:1 v/v/v). The Rr values for all 4 cyclic phosphates was in the range of 0.45-0.55 while α-GP and β-GP had Rf=0.14-0.16. This distinct difference allowed the qualitative detection of hydrolysis of the cyclic phosphate.

[8] = system: T47D human breast cancer cells; experiment: Proliferation of T47D human breast cancer cells (3H-thymidine); assay type: cell-based; details: 50 μM 1,3-cPP salt, days 1, 2 and 3 (P 0.0370, 0.0192, 0.0238) (FIG. 12)
Procedure: In this experiment, 8×10^4 T47D (clone 11) human breast cancer cells were plated in sets of 6 in 96 well microtiter plates and titrated concentrations (1-50 μM final concentrations) of 1,3-cPP salt in complete medium were added to the cultures at the beginning of the experiment only in a total volume of 200 μl per well. Plates were incubated at 37° C. over the course of 5 days, where 1 plate was pulsed with ^3H-thymidine (Sigma) overnight each day and subsequently frozen. All the plates were harvested together (Packard Micromate 196 Harvester, Merriden, Conn.) and scored on a 96 well plate reader (Packard Matrix 96, Merriden, Conn.).

[9] = system: cell lysate phosphatases; experiment: Inhibition of phosphatase activity of cell lysate (PNPP substrate); assay type: biochemical; details: 50 μM, 50 mM PNPP, 90 minutes at 37° C., pH 7.4
Procedure: Inhibition of phosphatase activity of cell lysate by cyclic phosphates was assayed in 1.0 ml of 50 mM Tris-HCl buffer, pH 7.4, containing 50 mM p-nitrophenyl phosphate, PNPP, as a substrate. Reaction was initiated by the addition of crude cell lysate (100 μg/ml final protein concentration) and terminated after 90 minutes at 37° C. by an addition of 50 μl of 1M NaOH. […] Assays were conducted under the same conditions as above in the presence of 50 μM cyclic phosphate. The enzyme activity in the absence of inhibitor was taken as 100% activity.

[10] = Stability of cyclic phosphates in cell lysates (TLC); details: 10 mg/ml in PBS mixed with CHO or NIH-3T3 cell lysate (0.1 mg/ml protein), 37°, up to 24 hours
Excerpt: This distinct difference allowed the qualitative detection of hydrolysis of the cyclic phosphate.

O=P1(O)OCCCO1 [1,3 cPP, 1,3 cyclic propanediol phosphate]
effect of unlabeled competitor on the uptake profile of 1,3-cP32P [1]: remained essentially unaltered
level of tyrosine phosphorylated proteins [2]: phosphorylation was most markedly seen in the band(s) having a molecular weight of about 35 kD and about 45 kD
displacement of 1,3-cP32P in perforated CHO cells [3]: specific binding
level of tyrosine phosphorylated proteins [4]: augmented tyrosine phosphorylation
synthesis of hemoglobin relative to sodium butyrate alone [5]: 3 fold
phosphorylation of insulin receptor (117 kD and 200 kD bands) relative to insulin only [6]: almost doubled
hydrolysis to the linear form in PBS [7]: No hydrolysis
proliferation versus cells in growth medium only [8]: significant inhibition
inhibition of cell lysate phosphatase activity [9]: 15-20%
hydrolysis to the linear form by cell lysate [10]: No hydrolysis
